Measurements taken from US8772274B1, “Anti-cancer compositions and methods” (The Penn State Research Foundation, priority 2008, dated 2014).
Where a name gives a salt, the structure may show the parent alone. Read-outs that look alike come from different tables or passages of the source.

Key:
[1] = tested on: Caco-2 colon adenocarcinoma cells; experiment: MTS cell viability assay, Caco-2; conditions: MTS
Procedure: In vitro inhibitory efficacy is measured using 3-(4,5-dimethylthiazol-2-yl)-5-(3-carboxymethoxyphenyl)-2-(4-sulfophenyl)-2H-tetrazolium (MTS) assay (Promega, Madison, Wis.). […] Cells are treated with either vehicle control, PBS, PBIT (40-120 μM) or PBISe (2.4-10 μM) for 72 h. The percentages of viable cells compared to control PBS treated cells are determined using MTS assay and IC50 values calculated using GraphPad Prism version 4.01 (GraphPad software, San Diego, Calif.). An IC50 value for each compound is determined by at least three independent experiments and represented with a standard error.
(§1) The IC50 value is evaluated by treating with increasing concentrations of PBIT, PEIT, PEISe (10-100 μM) or PBISe (1.6-50 μM) for 24-72 hours and the number of viable cell are quantified using MTS (Promega, Wis.).

WM115 melanoma cell line = experiment: MTS cell viability assay, WM115
Procedure: (§2) 5×10^3 cells per well in 100 μl DMEM-10% FBS are grown in a 96-well plate for 36 or 72 hours, respectively for melanoma (UACC 903, 1205 Lu and WM115) and human fibroblast (FF2441) cell lines and treated with either PBS vehicle or increasing concentrations (3.5-21 μM) of PBIT, PBISe, PEIT or PEISe for 24 hours. Cellular viability compared to control treated cells is measured using the MTS assay (Promega, Madison, Wis.). IC50 (μM) values for each compound in respective cell lines is determined from three independent experiments using GraphPad Prism version 4.01 (GraphPad, San Diego, Calif.), bars, SEM.
Growth inhibitory effects on cultured cells from human vertical growth phase (VGP) melanoma cell line WM115, Lung adenocarcinoma (A549), fibrosarcoma (HT-1080), prostate adenocarcinoma (PC-3), ovarian carcinoma (OVCAR-3), and breast adenocarcinoma (MDA-MB-231) are plated in 96 well plates at a density of 5×10^3 cells/well in 100 μl media. The cells are treated 36 hours later with PBISe (0.19-100 μM), PBIT (10-100 μM), PEIT 10-100 μM), or PEISe (10-100 μM) for 24 h and cell viability measured using MTS assay. Dose response curves for each compound are generated and the IC50 values (μM) determined using GraphPad Prism software. Each experiment is replicated at least 3 times and the average IC50 (μM) values with standard error represented.

[2] = tested on: HCT-116 colorectal adenocarcinoma cells; experiment: MTS cell viability assay, HCT-116; format: cell-based
[3] = tested on: 1205Lu melanoma cell line; experiment: MTS cell viability assay, 1205Lu; format: cell-based; conditions: read-out: IC50, 1205Lu (Table I)
Procedure: (§3) Cellular viability compared to control treated cells is measured using the MTS assay (Promega, Madison, Wis.).

[4] = tested on: HT-29 colorectal adenocarcinoma cells; experiment: MTS cell viability assay, HT-29; format: cell-based
[5] = tested on: SW-480 colorectal adenocarcinoma cells; experiment: MTS cell viability assay, SW-480; format: cell-based; conditions: Homo sapiens, SW480, read-out: Inhibition of growth IC50, last Colorectal adenocarcinoma row (Table II)
[6] = tested on: UACC 903 melanoma cell line; experiment: MTS cell viability assay, UACC 903; format: cell-based; conditions: read-out: IC50, UACC 903 (Table I)
Procedure: as §3

[7] = tested on: MDA-MB-231 breast adenocarcinoma cells; experiment: MTS cell viability assay, MDA-MB-231; format: cell-based, human; conditions: MDA-MB-231 breast adenocarcinoma; 24 h; MTS; read-out: Inhibition Cancer Cells IC50, MDA-MB-231 (Table III)
Procedure: (§4) Growth inhibitory effects on cultured cells from human vertical growth phase (VGP) melanoma cell line WM115, Lung adenocarcinoma (A549), fibrosarcoma (HT-1080), prostate adenocarcinoma (PC-3), ovarian carcinoma (OVCAR-3), and breast adenocarcinoma (MDA-MB-231) are plated in 96 well plates at a density of 5×10^3 cells/well in 100 μl media. […] Dose response curves for each compound are generated and the IC50 values (μM) determined using GraphPad Prism software. Each experiment is replicated at least 3 times and the average IC50 (μM) values with standard error represented.

[8] = tested on: PI3 kinase/Akt3 and MAP kinase signaling in UACC 903 cells; experiment: Western blot analysis of melanoma cell lysates; format: cell-based; conditions: melanoma cells
Procedure: Melanoma cell line UACC 903 cells (1×10^6) are treated with increasing concentrations (7-21 μM) of PBIT and PBISe for 24 hours and cell lysates examined by Western blot analysis Cell lysates are harvested by addition of lysis buffer containing 50 mM HEPES (pH 7.5), 150 mM NaCl, 10 mM EDTA, 10% glycerol, 1% Triton X-100, 1 mM sodium orthovanadate, 0.1 mM sodium molybdate, 1 mM phenylmethylsulfonyl fluoride, 20 μg/ml aprotinin, and 5 μg/ml leupeptin. Whole cell lysates are centrifuged (≧10,000×g) for 10 minutes at 4° C. to remove cell debris. Protein concentrations are quantitated using the BCA assay (Pierce, Rockford, Ill.), and 30 μg of lysate loaded per lane onto NuPAGE Gels (Life Technologies, Carlsbad, Calif.). Following electrophoresis, samples are transferred to polyvinylidene difluoride membrane (Pall Corporation, Pensacola, Fla.). Blots are probed with antibodies to PRAS40 and phosphorylated PRAS40 (Thr246) (Invitrogen, Carlsbad, Calif.); antibodies to iNOS, cyclin D1, p27, p21, Erk2, α-enolase and secondary antibodies conjugated with horseradish peroxidase from Santa Cruz Biotechnology (Santa Cruz, Calif.); and antibodies to Akt3, phosphorylated-Akt (Ser473), phosphorylated-Erk 1/2 (Thr202/Tyr204), caspase-3 and cleaved PARP from Cell Signaling Technology (Danvers, Mass.). Immunoblots are developed using ECL (Pierce, Rockford, Ill.).

[9] = tested on: normal human fibroblast cells (FF2441); experiment: MTS cell viability assay, normal fibroblasts; format: cell-based; conditions: FF2441; 24-72 hours; MTS; read-out: Inhibition of growth IC50, Fibroblast cells (FF2441) (Table II)
Procedure: as §2
Viability of colon adenocarcinoma cells (Caco-2, HT 29, HCT 116, SW 480) and normal fibroblast cells (FF2441) treated with PBIT (1), PBISe (2), PEIT (3) or PEISe (4) is compared. The IC50 value is evaluated by treating with increasing concentrations of PBIT, PEIT, PEISe (10-100 μM) or PBISe (1.6-50 μM) for 24-72 hours and the number of viable cell are quantified using MTS (Promega, Wis.).

[10] = tested on: colon adenocarcinoma cells (Caco-2, HT 29, HCT 116, SW 480); experiment: MTS viability, four colon cancer cell lines (summary); format: cell-based; conditions: Caco-2, HT 29, HCT 116, SW 480; 24-72 hours; read-out: IC50 range, four colon cancer cell lines
Procedure: as §1

[11] = tested on: A549 lung adenocarcinoma cells; experiment: MTS cell viability assay, A549; format: cell-based, human; conditions: A549 lung carcinoma; 24 h; MTS; read-out: Inhibition Cancer Cells IC50, A549 (Table III)
Procedure: as §4

[12] = Toxicity of topical application in vivo
Procedure: Blood collected from the control and experimental animals, at the end of treatment (day 29), are analyzed for SGOT, SGPT (representing liver and cardiac toxicity) and alkaline phosphatase (for kidney and cardiac toxicity). Additionally, concentrations of metabolites (glucose, creatinine, urea nitrogen and total protein) in serum are also determined.

[13] = tested on: OVCAR-3 ovarian carcinoma cells; experiment: MTS cell viability assay, OVCAR-3; format: cell-based, human; conditions: OVCAR-3 ovarian carcinoma; 24 h; MTS; read-out: Inhibition Cancer Cells IC50, OVCAR-3 (Table III)
Procedure: as §4

[14] = tested on: A549, Caco-2, HT-1080, PC-3, OVCAR-3, MDA-MB-231, WM115; experiment: MTS viability, all cancer cell lines tested (summary); format: cell-based, human; conditions: Table III; read-out: concentration decreasing cell viability by 50% (IC50), cancer cell lines of Table III
Procedure: as §4

[15] = tested on: iNOS (total nitrate+nitrite in Caco-2 cells); experiment: Nitrite estimation (nitrate/nitrite colorimetric assay); format: cell-based; conditions: 80 μM, 72 hours
Procedure: Nitrite content in cell culture media is determined using a nitrate/nitrite colorimetric assay kit (Cayman Chemical Company, Ann Arbor, Mich.) essentially as described in Salvucci, O. et al., Cancer Res 2001; 61:318-26. Caco-2 cells (1×10^6) are plated in 60 mm culture dishes in advanced DMEM containing 10% heat treated FBS for 12 hours, growing cells conditioned with phenol-red free DMEM containing 0.5% FBS for an additional 12 hours. Cells are then treated with increasing concentrations of PBIT (40 and 80 μM) or PBISe (2 and 4 μM) dissolved in phenol-red free DMEM (2 ml) containing 0.5% FBS for 72 hours. Culture supernatants are collected and total nitrite (nitrate+nitrite) measured by incubating 80 μL supernatant with enzyme cofactor mixture (10 μL) and nitrate reductase (10 μL) for 2 hours. Total nitrite is measured by the addition of Griess reagent-I and II (50 μL each). A nitrate standard curve (5-35 μM) is simultaneously prepared. Total nitrite present in media alone is subtracted from all experimental values and represented as micromolar nitrite produced following each treatment.

[16] = tested on: PC-3 prostate adenocarcinoma cells; experiment: MTS cell viability assay, PC-3; format: cell-based, human; conditions: PC-3 prostate adenocarcinoma; 24 h; MTS; read-out: Inhibition Cancer Cells IC50, PC-3 (Table III)
Procedure: as §4

[17] = tested on: HT-1080 fibrosarcoma cells; experiment: MTS cell viability assay, HT-1080; format: cell-based, human; conditions: HT-1080 fibrosarcoma; 24 h; MTS; read-out: Inhibition Cancer Cells IC50, HT-1080 (Table III)
Procedure: as §4

[18] = read-out: Inhibition of growth IC50, Caco-2 (Table II), Caco-2, 24-72 hours

Compound `N=C(N)[Se]CCc1ccccc1` [PEISe, s-2-phenylethylisoselenourea hydrobromide] has an IC50 [1, 18] of 16 ± 2 µM, an IC50 (WM115 melanoma cell line; Homo sapiens, WM-115, 24 h, read-out: IC50, WM115 (Table I)) of about 80 µM and an IC50 ([2]; Homo sapiens, HCT-116, read-out: Inhibition of growth IC50, HCT-116 (Table II)) of over 100 µM. For the same compound, the IC50 ([3]; Homo sapiens, 1205Lu, 24 h) was over 100 µM, the IC50 ([4]; Homo sapiens, HT-29, read-out: Inhibition of growth IC50, HT-29 (Table II)) was 21.9 ± 2.1 µM and the IC50 [5] was over 100 µM. It also gave an IC50 ([6]; Homo sapiens, UACC-903, 24 h) of over 100 µM.
In the case of `N=C(N)[Se]CCc1ccccc1` (as salt: hydrobromid) [PEISe, s-2-phenylethylisoselenourea hydrobromide], the melting point is reported as 140 to 142 °C.
`Br.Br.N=C(N)SCCc1ccc(CCSC(=N)N)cc1` [PBIT, s,s′-1,4-phenylene-bis(1,2-ethanediyl)bis-isothiourea dihydrobromide, reference compound] showed an IC50 [7] of over 100 µM, an IC50 ([1]; read-out: Inhibition Cancer Cells IC50, Caco-2 (Table III), Caco-2 colorectal adenocarcinoma) of 59.4 ± 3.8 µM and an IC50 [1, 18] of 59.4 ± 3.83 µM. The IC50 (WM115 melanoma cell line; read-out: IC50, WM115 (Table I), WM115 melanoma, 24 hours treatment, MTS) was over 100 µM, the IC50 (WM115 melanoma cell line; read-out: Inhibition Cancer Cells IC50, WM115 (Table III), WM115 melanoma, 24 h, MTS) was over 100 µM and the iNOS expression ([8]; FIG. 4B) was “elevates”. For the same compound, the “cyclin D1 levels” value ([8]; FIG. 4C) was “does not alter”, the IC50 [9] was over 100 µM and the IC50 [10] was 59 to 100 µM. The IC50 ([2]; HCT-116, 24-72 hours, MTS, read-out: Inhibition of growth IC50, HCT-116 (Table II)) was over 100 µM, the IC50 [11] was over 100 µM and the “serum enzyme and metabolite levels, topical application” value ([12]; day 29, SGOT, SGPT, alkaline phosphatase, glucose, creatinine, urea nitrogen, total protein) was “no significant differences”. For the same compound, the “body weight, topical application” value ([12]; topical every day, 29 days) was “no detectable differences”, the IC50 [13] was over 100 µM and the IC50 ([3]; 1205Lu melanoma, 24 hours treatment, MTS) was over 100 µM. The IC50 [14] was over 100 µM, the IC50 ([4]; HT-29, 24-72 hours, MTS, read-out: Inhibition of growth IC50, HT-29 (Table II)) was over 100 µM and the “total nitrate+nitrite levels compared to control PBS treated cells” value [15] was “significantly reduces”. It also gave an IC50 [16] of over 100 µM, an IC50 ([6]; UACC 903 melanoma, 24 hours treatment, MTS) of over 100 µM and an IC50 [17] of over 100 µM.
